# Legend:
# [1] = system: mixed H1299 xenograft containing 28% NfsA_Ec cells and 72% WT cells; test: Tumor growth delay assay, mixed H1299 xenograft; type: in vivo, mice; conditions: single i.p. dose: PR-104 388 µmol/kg; 1-P 1330 µmol/kg; 2-P 750 µmol/kg; 6-P 1330 µmol/kg
# Protocol: These ratios were broadly similar to those observed in HCT116 cells (Figure 2). A mixed H1299 xenograft model containing a minority percentage (28 ± 3.3%) of NfsA_Ec-expressing cells was used in order to rank the efficacy of the prodrugs in vivo. A model such as this necessitates the presence of a robust bystander effect to achieve a tumor growth delay. Tumor-bearing mice were administered a single intraperitoneal dose of prodrugs 1-P, 2-P, and 6-P at the H1299 tumor-bearing MTD. PR-104 was administered at 388 µmol/kg, the human equivalent dose (HED) in mice that provides a plasma AUCfree of PR-104A (38 µM-h) that equates to the human Q3W MTD of 1100 mg/m^2 [22].
# An estimated starting dose was determined from related compounds. Animals were promptly euthanized if body weight loss exceeded 20% or if there were clinical signs of severe morbidity. The MTD was defined as the highest dose, at which all animals survived (death rate < 1/6) with no unacceptable morbidity, and where the next dose increment had caused at least one death. Tumors were inoculated onto the flanks of NIH-III nude mice by subcutaneous injection of 10^7 H1299 cells. Tumor-bearing mice were randomized to treatment groups (n = 5 mice per group) when tumors reached treatment size (300–350 mm^3) and injected with a single intraperitoneal dose of pre-prodrug. Tumor size and body weights were measured regularly. Tumor volume was calculated as π(Lxw^2)/6, where L is the major axis and w is the perpendicular minor axis. Animals were euthanized when the tumor volume had increased fourfold relative to pre-treatment volume (RTV4, survival endpoint) or if body weight loss exceeded 20% of the pre-treatment value. Kaplan–Meier plots were constructed, and median time to endpoint was calculated. Treatment efficacy was assessed by comparing the median survival time with untreated animals using the Log-rank test p-test (Sigmaplot version 11.0).
# Figure 5 In vivo efficacy of the three lead pre-prodrug compounds in a mixed H1299 xenograft containing 28% NfsA_Ec cells and 72% WT cells. (A) Tumor growth and (B) survival analysis of mice bearing 250 mm^3 H1299 tumors treated with a single intraperitoneal dose of prodrug on day 0. N = 5 animals per group. Control = PBS, PR-104 = 388 µmol/kg; 1-P = 1330 μmol/kg; 2-P = 750 μmol/kg; and 6-P = 1330 μmol/kg. Survival endpoint was 4× start volume (RTV4).
# [2] = cited from earlier work
# SiHa xenografts = test: Tumor excision assay, clonogenic cell kill of SiHa xenografts; type: in vivo, mice; conditions: 18 h after treatment, PR-104 380 µmol/kg i.p., 6-P 1330 µmol/kg i.p.
# Protocol: The sensitivity of four cancer cell lines to prodrug 6 was determined under aerobic or anoxic conditions using an anti-proliferative IC50 assay. […] We also evaluated the hypoxic activity of 6-P versus PR-104 in vivo using a SiHa xenograft model (Figure 6B).
# When tumors reached treatment size (>400 mm^3), mice were treated with drug by a single intraperitoneal injection of pre-prodrug or vehicle. Mice treated with ionizing radiation were exposed to 10 Gray prior to drug treatment, using a cobalt-60 source from an Eldorado G unit. Animals were euthanized 18 h after drug treatment, and tumors were excised and homogenized using sterile scissors until a fine mince was obtained. Following enzymatic dissociation (2.5 mg/mL pronase, 1 mg/mL collagenase, and 0.2 mg/mL DNAase in αMEM + 10% FBS + 1% P/S, 1 mL per 50 mg), cells were plated at concentrations of 10^2–10^5 cells per 60 mm dish and grown for 10 days before colonies were stained with methylene blue (2 g/L in 50% aqueous alcohol). Colonies containing >50 cells were counted as clonogenic survivors. From these values, plating efficiency (colonies/cells plated), number of clonogens per gram of tumor tissue (plating efficiency × total cells), and log cell kill relative to vehicle treated controls (log clonogens per gram) were calculated. Statistical analysis was undertaken using Holm–Sidak’s one-way ANOVA (Sigmaplot version 11.0).
# (A) In vitro anti-proliferative activity of 6 in various cancer cell lines under aerobic and anoxic conditions. IC50 values were determined as the concentration of drug required to inhibit cell growth by 50% of untreated controls following 4 h drug exposure and five days regrowth (mean ±SEM of three or more independent determinations). (B) Clonogenic cell kill of SiHa xenografts 18 h after treatment with hypoxia activated prodrugs PR-104 (380 µmol/kg, i.p.) or 6-P (1330 µmol/kg, i.p.) with or without 10 Gy radiation.
# [3] = target: T1, purified His6-tagged NfsA_Ec (Escherichia coli, UniProt P17117); test: Steady-state kinetics of reduction by purified NfsA_Ec; type: biochemical, E. coli; conditions: apparent, measured at 250 µM NADPH
# T1 construct: His6; made in house
# T1 sequence (P17117 1-240): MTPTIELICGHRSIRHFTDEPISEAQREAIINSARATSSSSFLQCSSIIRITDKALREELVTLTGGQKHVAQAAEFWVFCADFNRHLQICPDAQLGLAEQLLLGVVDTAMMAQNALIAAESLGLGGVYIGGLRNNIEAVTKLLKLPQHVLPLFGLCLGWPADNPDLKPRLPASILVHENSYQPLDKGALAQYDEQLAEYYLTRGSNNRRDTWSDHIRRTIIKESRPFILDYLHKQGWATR
# Description: (§1) We next sought to characterize the NfsA_Ec-mediated conversion of lead prodrug 6 in steady-state kinetics assays using purified His6-tagged NfsA_Ec. […] We therefore conducted a preliminary assessment of whether alternative bacterial NTR enzymes might hold promise for further GDEPT improvements.
# Supplementary Table S3. Steady-state kinetic parameters* for reduction of compound 6 and PR-104A by NfsA_Ec.
# Compound Km (µM) kcat (s-1) kcat/Km (mM-1 s-1)
# * Apparent kinetic parameters, measured at 250 µM NADPH
# # As previously reported by
# NfsA_Ec was purified as a His6-tagged recombinant protein as previously described. Kinetics assays were performed in 60 µl in UVettes (Eppendorf), using the 2 mm light path length. Reactions contained 10 mM Tris-Cl (pH 7.0), 4% DMSO, 0.25 mM NADPH and varying concentrations of PR - 104A or compound 6. Reactions were initiated by addition of 6 µl enzyme and changes in absorbance were measured for 20 s (during linearity). For calculation of Km and kcat, substrate concentrations were varied from ~0.2 x Km to 5 x Km. Molar extinction coefficients of 4,800 or 6,000 M-1 cm-1 were used for compound 6 and PR-104A, respectively. Non-linear regression analysis and Michaelis-Menten curve fitting was performed using Sigmaplot 10.0 (Systat Software Inc.).
# [4] = LogD7.4 by low-volume octanol/PBS shake-flask method; type: physicochemical; conditions: n-octanol/PBS; octanol-water partition coefficient, shake-flask method at pH 7.4
# Protocol: Distribution ratios (LogD7.4) were determined by a low-volume octanol/PBS shake-flask method. Briefly, saturated solutions of octanol and PBS were prepared by mixing equal volumes of n-octanol and PBS (pH 7.4) before being left for three days. The octanol and PBS phases were then carefully separated and left to stand for at least 24 h. Stock solutions (0.1–0.5 mM) of each compound were prepared in octanol saturated with PBS. The stock solutions were diluted with octanol saturated with PBS containing and inter-assay control (acridone) to a final compound concentration of 50 μM. Aliquots (450 μL) were then taken in triplicate, and 450 μL of PBS saturated with octanol was added into amber tubes. The tubes were then sealed in parafilm and rotated for 90 min at 30 rpm to equilibrate. After centrifugation (15,000× g, 5 min, 20°C) the octanol and PBS phases were separated into different tubes and the octanol phase diluted with methanol (1:5 v/v). Both phases were analyzed by HPLC (diode-array detector at 364 ± 10 nm) by injecting 50 μL of the PBS phase and 15 μL of the diluted octanol phase. The results were then expressed as the log ratio of the peak areas obtained from the octanol and PBS phases corrected for dilution and injection volume.
# 100% HCT116 AKR1C3 MCLs = test: 3D multicellular layer (MCL) assay, 100% HCT116 AKR1C3; type: cell-based, human; conditions: 10 µM prodrug, five hours
# Protocol: Similar to the 3D NfsA_Ec screen, increased lipophilicity also tracked with increased LCK in 100% AKR1C3-expressing MCLs (R = 0.78, R^2 = 0.61). […] These three lead compounds were taken forward into in vivo studies.
# Multicellular layers (MCLs) were grown, and bystander effect assays were performed as previously reported.
# Figure 4 Lipophilic structure–activity relationship for AKR1C3 in three dimensions. (A) Plating efficiency in 100% HCT116 WT and 100% HCT116 AKR1C3 MCLs exposed to 10 µM prodrug for five hours before dissociation and plating to determine clonogenic survival. (B) Correlation between Log cell kill and LogD7.4. R = 0.78, R^2 = 0.61. Log cell kill = Log CS (control)–Log CS (treated), where CS is the number of clonogenic survivors per MCL.
# [5] = system: H1299 cells expressing E. coli NfsA; test: Anti-proliferative IC50 assay, H1299 cells expressing E. coli NfsA; type: cell-based
# Protocol: (§2) The anti-proliferative IC50 was determined as the concentration of prodrug required for 50% inhibition of cell growth, following drug exposure for four hours, then five days regrowth in the absence of drug. Assays were performed under oxic or anoxic conditions as described previously, the latter by using a 5% H2/palladium catalyst scrubbed Bactron anaerobic chamber (Sheldon Manufacturing, Cornelius, OR, USA) to achieve severe anoxia (<10 ppm O2 gas phase) during prodrug exposure.
# (§3) Supplementary Table S2. In vitro anti-proliferative activity of the three lead prodrug compounds in H1299 cells expressing E. coli NfsA. IC50 values were determined as the concentration of drug required to inhibit cell growth by 50% of untreated controls following 4 hour drug exposure, with washing and regrowth for five days.
# (§4) Compound WT NfsA_Ec Ratio
# H1299 WT cells = test: Anti-proliferative IC50 assay, H1299 WT cells; type: cell-based; conditions: Homo sapiens, NCI-H1299, 4 hour drug exposure, regrowth for five days
# Protocol: as §2, §3, §4
# [6] = system: 47 different NTR candidates; test: GFP-SOS (DNA damage) response in E. coli SOS-R4 reporter strains expressing nitroreductase candidates; type: cell-based; conditions: 20 µM, six-hour exposure, library of E. coli reporter cells
# Description: as §1
# Supplementary Figure S2. Identification of alternative nitroreductases able to activate compound 6. Bar graph displaying the fold-induction of GFP in the DNA-damage responsive E. coli reporter strain SOS-R4, following six-hour exposure to 20 µM of compound 6, compared with unchallenged replicates. Individual strains expressed nitroreductase candidates derived from different bacteria, identified by a two-letter suffix as explained in the Materials and Methods. The background SOS response induced by compound 6 in an empty plasmid control strain is indicated by the dashed line. […]
# The GFP-SOS response was determined in SOS-R4 [16] by inoculating 200 μl aliquots of LBASG (lysogeny broth supplemented with 100 μgml-1 ampicillin, 50 μgml-1 spectinomycin and 0.2% glucose (w/v)) with selected SOS-R4 nitroreductase-over-expressing strains and incubating overnight at 30 °C, 200 rpm. […] Control and challenge plates were incubated at 30 °C, 200 rpm for 6 h, at which point OD600 and GFP fluorescence (excitation 490 nm/ emission 503 nm) were measured on an Enspire™ 2300 Multilabel Reader (Perkin Elmer, Waltham, MA). […]
Structure (SMILES),Tumor growth delay (median time to RTV4) compared to untreated controls [1] [%],Human Q3W MTD [2] [mg/m^2],"Log cell kill, in combination with radiotherapy (SiHa xenografts; 10 Gy radiation)","Log cell kill, single agent (SiHa xenografts)",kcat [3] [s⁻¹],logD at 90 min [4],Log cell kill (LCK) (100% HCT116 AKR1C3 MCLs),"IC50 ([5]; Escherichia coli, NCI-H1299, H1299 NfsA_Ec, 4 hour drug exposure, regrowth for five days) [µM]",WT:NfsA_Ec IC50 ratio ([5]; H1299 WT vs H1299 NfsA_Ec) [fold],IC50 (H1299 WT cells) [µM],Activation of the SOS (DNA damage repair) response [6]
"CS(=O)(=O)OCCN(CCBr)c1c(C(=O)NCCOP(=O)(O)O)cc([N+](=O)[O-])cc1[N+](=O)[O-] [PR-104, 2-[(2-bromoethyl)-2,4-dinitro-6-[[[2-(phosphonooxy)ethyl]amino]carbonyl]anilino]ethyl methanesulfonate, reference compound]",33,1100,3.72,1.38,–,–,–,–,–,–,–
"CCS(=O)(=O)c1cc([N+](=O)[O-])c(C(=O)N(C)CCO)cc1N(CCBr)CCBr [Compound 6, 5-(Bis(2-bromoethyl)amino)-N-(2-hydroxyethyl)-N-methyl-4-(ethylsulfonyl)-2-nitrobenzamide]",–,–,–,–,5.5 ± 0.3,1.6,≤ 0.11,0.47 ± 0.1,472,222 ± 39,broadly activated by members of both the NfsA and NfsB nitroreductase families
